Assay results as given in patent US11357782B2, “Treprostinil administration by inhalation” (priority 2006, dated 2022).
“Also recorded” adds a separate entry of the source.

Columns and labels:
[1] = Treprostinil plasma concentrations after single inhalation (study ii), LC-MS/MS; conditions: for Cmax: human, plasma, inhaled
Procedure: Treprostinil plasma concentrations were assessed in study ii) at 10, 15, 30, 60 and 120 minutes after inhalation. Treprostinil quantification was done by Alta Analytical Laboratory (El Dorado Hills, Calif., USA) with a validated liquid chromatography atmospheric-pressure ionization tandem mass spectrometry as previously described Wade M., et al. J. Clin. Pharmacol. 2004; 44:503-9. Mixed venous blood was drawn at the depicted time points (FIG. 11) after inhalation, centrifuged and the plasma frozen at −80° C. until temperature controlled shipping on dry ice.

[2] = tested on: patients with moderate to severe precapillary pulmonary hypertension; assay: Acute vasodilator challenge during right heart catheter investigation: inhaled treprostinil applied by soft mist inhaler (Example 1); conditions: for CO (max) / HR (max) / SvO2 (max): highest value; for CO (max) / HR (max) / SvO2 (max) / PAP (min) / PVR (min) / SAP (min) / SVR (min) / SaO2 (min): mean ± SEM; for PAP (min): lowest value during 120 min observation; for PVR (min) / SAP (min) / SVR (min) / SaO2 (min): lowest value; for pulmonary vascular resistance (PVR) reduced to: Respimat SMI, mean±95% confidence interval
Procedure: A study was conducted of acute vasodilator challenge during right heart catheter investigation to determine the safety, tolerability and pulmonary vasodilatory potency of inhaled treprostinil applied in seconds by a soft mist inhaler (SMI-TRE).
Inhaled nitric oxide (20 ppm; n=45) and inhaled treprostinil sodium (TRE; n=41) or placebo (n=4) were applied once during right heart catheter investigation. TRE was delivered in 2 breaths (1000 μg/ml aerosol concentration; 30 μg dose; n=12), 3 breaths (1000 μg/ml; 45 μg; n=9) or 2 breaths (2000m/m1; 60 μg; n=20) from a Respimat® SMI. Pulmonary hemodynamics and blood gases were measured at defined time points, observation time following TRE application was 120 minutes.
• A total number of 45 patients with moderate to severe precapillary pulmonary hypertension were enrolled. […] Disease etiologies were idiopathic PAH (iPAH) (n=13), PAH other (n=11), chronic thromboembolic pulmonary hypertension (CTEPH) (n=17) and pulmonary fibrosis (n=4).
Baseline values were determined 20-30 minutes after placement of the catheter. Heart rate, pulmonary and systemic blood pressure and cardiac output were measured and blood gases were taken during each pharmacological intervention at defined time points. Pharmacological interventions included the inhalation of 20 ppm nitric oxide (NO) after evaluation of baseline parameters (n=45) and the consecutive inhalation of placebo (n=4), 30 μg SMI-TRE (n=12), 45 μg SMI-TRE (n=9) or 60 μg (n=20) SMI-TRE. Placebo and treprostinil was applied with the Respimat® SMI. For filling of this device with treprostinil sodium, the placebo solution was withdrawn from the device with a syringe and treprostinil solution was injected into the device under sterile conditions. Aerosol quality was controlled before and after refilling of the SMI devices by laser diffractometry, see e.g. Gessler T., Schmehl T., Hoeper M.M., Rose F., Ghofrani H.A., Olschewski H. et al. Ultrasonic versus jet nebulization of iloprost in severe pulmonary hypertension. Eur. Respir. J. 2001; 17:14-19 incorporated herein in its entirety. […] The aerosol volume delivered by one cycle from the SMI was 15 μl. The solution used for aerosol generation was prepared from treprostinil sodium salt using a standard protocol. The SMI was either filled with a concentration of 1000 μg/ml treprostinil sodium (one aerosol puff=15 μg TRE) or with 2000 μg/ml (one puff=30 μg TRE). The different doses were applied as 2 puffs 1000 μg/ml (30 μg), 3 puffs 1000m/m1 (45 μg) and 2 puffs 2000 μg/ml (60 μg). The placebo was inhaled as 2 puffs from a placebo-SMI. Hemodynamics and gas-exchange parameters were recorded for 120 minutes after TRE inhalation.

[3] = tested on: patients with severe pulmonary hypertension; assay: Study iii) reduction of inhalation time at fixed 15 μg dose, pulsed ultrasonic nebulizer
Procedure: Study iii) was a randomized, open-label, single blind study. The primary objective was to explore the shortest possible inhalation time for a 15 μg dose of inhaled treprostinil. A total of 48 patients inhaled one dose of TRE during right heart catheter investigation. The drug was applied in 18, 9, 3, 2 or 1 breaths. The aerosol was generated by a pulsed ultrasonic nebulizer (OPTINEB®, Nebutec, Elsenfeld, Germany) in cycles consisting of 2 seconds aerosol production (pulse) and 4 seconds pause. The device included an opto-acoustical trigger for the patient to synchronize the inspiration to the end of the aerosol pulse, thereby providing exact dosage. The TRE dose of 15 μg was either generated during 18 cycles (OPTINEB® filled with 100 μg/ml TRE, n=6), 9 cycles (200 μg/ml TRE, n=6), 3 cycles (600 μg/ml TRE, n=21), 2 cycles (1000m/m1 TRE, n=7) or 1 cycle (2000 μg/ml TRE, n=8). Hemodynamics and gas exchange were recorded for 120-180 minutes.

[4] = 15 μg, 1 pulse, 2000 μg/ml, n=8
[5] = 15 μg, 2 pulses, 1000 μg/ml, n=7
[6] = 15 μg, 3 pulses, 600 μg/ml, n=21
[7] = 15 μg, 9 pulses, 200 μg/ml, n=6
[8] = 15 μg, 18 pulses, 100 μg/ml, n=6

With `CCCCC[C@H](O)CC[C@@H]1[C@H]2Cc3cccc(OCC(=O)[O-])c3C[C@H]2C[C@H]1O.[Na+]` [TRE] as the compound, how does the “time of peak plasma concentrations after inhalation” value ([1]; 30-120 μg, 6 min inhalation) read?
The value was 10 to 15 min.

And the Cmax ([1]; 30 ug)?
The Cmax was 0.00065 ± 0.00028 µg/mL.

And the Cmax ([1]; 60 ug)?
Its Cmax is 0.00159 ± 0.00017 µg/mL.

What about the Cmax ([1]; 90 ug) of the same compound?
The Cmax was 0.00174 µg/mL.

What about the Cmax ([1]; 120 ug) of the same compound?
Its Cmax is 0.00351 ± 0.00104 µg/mL.

And the “120 minute area under the curve for PVR” value ([2]; 30 μg TRE)?
Its value is −870±940 min %.

And the “duration of effect on pulmonary vascular resistance” value ([2]; 30 μg TRE, compared with 45 and 60 μg)?
Its value is “somewhat shorter effect”.

What about the “CO (max)” value ([2]; 30 μg TRE, n=12) of the same compound?
The value was 108.8 ± 3.8% of baseline values.

And the “HR (max)” value ([2]; 30 μg TRE, n=12)?
The value was 106.1 ± 2.9% of baseline values.

And the “SvO2 (max)” value ([2]; 30 μg TRE, n=12)?
The value was 102.4 ± 1.3% of baseline values.

And the “PAP (min)” value ([2]; 30 μg TRE, n=12)?
The value was 83.4 ± 3.2% of baseline values.

What about the “PVR (min)” value ([2]; 30 μg TRE, n=12) of the same compound?
Its value is 84.4 ± 4.4% of baseline values.

What about the “SAP (min)” value ([2]; 30 μg TRE, n=12) of the same compound?
The value was 97.3 ± 1.9% of baseline values.

And the “SVR (min)” value ([2]; 30 μg TRE, n=12)?
Its value is 97.7 ± 4.2% of baseline values.

And the “SaO2 (min)” value ([2]; 30 μg TRE, n=12)?
Its value is 101 ± 0.3% of baseline values.

And the “pulmonary vascular resistance (PVR) reduced to” value ([2]; 30 μg, 2 breaths 1000 μg/ml)?
Its value is 84.4±8.7 % of baseline values.

And the “120 minute area under the curve for PVR” value ([2]; 45 μg TRE)?
Its value is −2450±2070 min %.

What about the “CO (max)” value ([2]; 45 μg TRE, n=9) of the same compound?
Its value is 108.6 ± 5.6% of baseline values.

What about the “HR (max)” value ([2]; 45 μg TRE, n=9) of the same compound?
The value was 99.1 ± 2.4% of baseline values.

What about the “SvO2 (max)” value ([2]; 45 μg TRE, n=9) of the same compound?
Its value is 104.5 ± 4.4% of baseline values.

What about the “PAP (min)” value ([2]; 45 μg TRE, n=9) of the same compound?
Its value is 77.6 ± 6.8% of baseline values.

What about the “PVR (min)” value ([2]; 45 μg TRE, n=9) of the same compound?
Its value is 71.4 ± 8.9% of baseline values.

What about the “SAP (min)” value ([2]; 45 μg TRE, n=9) of the same compound?
Its value is 96.1 ± 1.5% of baseline values.

What about the “SVR (min)” value ([2]; 45 μg TRE, n=9) of the same compound?
The value was 92 ± 3.9% of baseline values.

And the “SaO2 (min)” value ([2]; 45 μg TRE, n=9)?
Its value is 94.4 ± 1.8% of baseline values.

And the “pulmonary vascular resistance (PVR) reduced to” value ([2]; 45 μg, 3 breaths 1000 μg/ml)?
Its value is 71.4±17.5 % of baseline values.

And the “120 minute area under the curve for PVR” value ([2]; 60 μg TRE)?
Its value is −2000±900 min %.

What about the “CO (max)” value ([2]; 60 μg TRE, n=20) of the same compound?
The value was 103.8 ± 2.0% of baseline values.

What about the “HR (max)” value ([2]; 60 μg TRE, n=20) of the same compound?
The value was 101.1 ± 0.9% of baseline values.

What about the “SvO2 (max)” value ([2]; 60 μg TRE, n=20) of the same compound?
Its value is 102 ± 1.0% of baseline values.

And the “PAP (min)” value ([2]; 60 μg TRE, n=20)?
Its value is 79.5 ± 2.4% of baseline values.

What about the “PVR (min)” value ([2]; 60 μg TRE, n=20) of the same compound?
The value was 77.5 ± 3.7% of baseline values.

What about the “SAP (min)” value ([2]; 60 μg TRE, n=20) of the same compound?
The value was 93.6 ± 2.9% of baseline values.

What about the “SVR (min)” value ([2]; 60 μg TRE, n=20) of the same compound?
The value was 91.3 ± 2.1% of baseline values.

And the “SaO2 (min)” value ([2]; 60 μg TRE, n=20)?
The value was 95.8 ± 0.9% of baseline values.

What about the “pulmonary vascular resistance (PVR) reduced to” value ([2]; 60 μg, 2 breaths) of the same compound?
The value was 77.5±7.2 % of baseline values.

And the “effect on systemic vascular resistance and pressure” value ([2]; 30-60 μg from Respimat SMI)?
Its value is “very small and not clinically significant”.

And the systemic side effects ([2]; 30-60 μg from Respimat SMI)?
Its systemic side effects is “No systemic side effects”.

What about the “tolerability / side effects” value ([2]; 30-60 μg from Respimat SMI, listed as SMI-TRE) of the same compound?
The value was “No significant side effects; also recorded: well tolerated; also recorded: only mild and transient cough for a maximum of one minute”.

And the “duration of PVR reduction / pulmonary vasodilation” value ([2]; 45 and 60 μg, single inhalation of 2-3 breaths, outlasted observation time)?
The value was greater than 120 min.

And the cardiac output ([2]; 120 min observation period)?
Its cardiac output is “significantly increased”.

What about the gas exchange ([2]; 120 min observation period) of the same compound?
Its gas exchange is “not influenced”.

And the heart rate ([2]; 120 min observation period)?
The heart rate was “rather unchanged”.

And the reported side effects ([3]; 15 μg, 48 patients, cough n=6, headache n=2, jaw pain n=1)?
The reported side effects was “mild transient cough; also recorded: mild headache; also recorded: mild jaw pain”.

And the cardiac output ([3]; 15 μg, all groups)?
The cardiac output was “moderately increased”.

And the systemic arterial pressure ([3]; 15 μg, all groups)?
The systemic arterial pressure was “not significantly affected”.

And the “PAP reduced to” value [3, 4]?
Its value is 88±5.4%.

What about the “PVR reduced to” value [3, 4] of the same compound?
Its value is 80.3±5.2%.

And the “PAP reduced to” value [3, 5]?
The value was 86±4%.

And the “PVR reduced to” value [3, 5]?
The value was 77.4±4.5%.

What about the “PAP reduced to” value [3, 6] of the same compound?
The value was 81.1±4.1%.

And the “PVR reduced to” value [3, 6]?
The value was 71.2±6.0%.

And the “PAP reduced to” value [3, 7]?
Its value is 84.2±4.1%.

And the “PVR reduced to” value [3, 7]?
The value was 72.9±4.9%.

What about the “PAP reduced to” value [3, 8] of the same compound?
Its value is 84.2±4.5%.

What about the “PVR reduced to” value [3, 8] of the same compound?
The value was 76.3±5.6%.

And the “concentration safely utilized without considerable side effects” value ([3]; metacresol-free TRE solution, modified OPTINEB)?
The value was no more than 2000 µg/mL.

What about the “duration of pulmonary vasodilation” value ([3]; single breath of 2000 μg/ml, 15 μg, compared to placebo inhalation) of the same compound?
Its value is greater than 3 h.
